Assay results reported in US20240261367A1, “CYCLIC PEPTIDE IMMUNOMODULATORS” (priority 2021, published 2024).

Target: T1, PD-1/PD-L1 (Homo sapiens, UniProt Q9NZQ7)
T1 construct: TVMV protease site linker (C); made in house; host or cells: HEK293T cells
Experiment: PD-1/PD-L1 Homogenous Time-Resolved Fluorescence (HTRF) binding assay
Settings: PD-L1-His (10 nM) pre-incubated with inhibitor 15 m, then PD-1-Ig (20 nM)
Text: Methods for Testing the Ability of Macrocyclic Peptides to Compete for the Binding of PD-1 to PD-L1 Using Homogenous Time-Resolved Fluorescence (HTRF) Binding Assays
The ability of the compounds of formula (I) to bind to PD-L1 was investigated using a PD-1/PD-L1 Homogenous Time-Resolved Fluorescence (HTRF) binding assay.
Homogenous Time-Resolved Fluorescence (HTRF) Binding Assay
The interaction of PD-1 and PD-L1 can be assessed using soluble, purified preparations of the extracellular domains of the two proteins. The PD-1 and PD-L1 protein extracellular domains were expressed as fusion proteins with detection tags, for PD-1, the tag was the Fc portion of Immunoglobulin (PD-1-Ig) and for PD-L1 it was the 6 histidine motif (PD-L1-His). All binding studies were performed in an HTRF assay buffer consisting of dPBS supplemented with 0.1% […] bovine serum albumin and 0.05% (v/v) Tween-20. […] HTRF detection was achieved using europium crypate-labeled anti-Ig (1 nM final) and allophycocyanin (APC) labeled anti-His (20 nM final). Antibodies were diluted in HTRF detection buffer and 5 μl was dispensed on top of the binding reaction. The reaction mixture was allowed to equilibrate for 30 minutes and the resulting signal (665 nm/620 nm ratio) was obtained using an EnVision fluorometer. Additional binding assays were established between the human proteins PD-1-Ig/PD-L2-His (20 & 5 nM, respectively) and CD80-His/PD-L1-Ig (100 & 10 nM, respectively).
Recombinant Proteins: Human PD-1 (25-167) with a C-terminal human Fc domain of immunoglobulin G (Ig) epitope tag [hPD-1 (25-167)-3S-IG] and human PD-L1 (18-239) with a C-terminal His epitope tag [hPD-L1(18-239)-TVMV-His] were expressed in HEK293T cells and purified sequentially by ProteinA affinity chromatography and size exclusion chromatography. Human PD-L2-His and CD80-His was obtained through commercial sources.
Table 1 lists the IC50 values for representative examples of this disclosure measured in the PD-1/PD-L1 Homogenous Time-Resolved Fluorescence (HTRF) binding assay.

T1 sequence (Q9NZQ7 18-239): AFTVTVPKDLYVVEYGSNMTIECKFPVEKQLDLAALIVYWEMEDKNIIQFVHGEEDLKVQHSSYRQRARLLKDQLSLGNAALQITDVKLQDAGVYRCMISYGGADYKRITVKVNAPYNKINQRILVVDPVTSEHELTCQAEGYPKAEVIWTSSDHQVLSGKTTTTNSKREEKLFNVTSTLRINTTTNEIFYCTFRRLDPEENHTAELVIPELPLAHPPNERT

IC50 [nM]	SMILES
27	CCCC[C@H]1C(=O)N(C)[C@@H](CCCC)C(=O)N[C@@H](CC(C)C)C(=O)N[C@H](C(=O)NCC(=O)N[C@@H](Cc2cn(CCOCCOCCOCCOCCOCCOCCOCCOCCOCCOCCOCCNC(=O)CC[C@H](NC(=O)CCCCCCCCCCCCCCCCC(=O)O)C(=O)O)nn2)C(=O)O)CSCC(=O)N[C@@H](Cc2ccc(O)cc2)C(=O)N(C)[C@@H](C)C(=O)N[C@@H](CC(N)=O)C(=O)N2CCC[C@H]2C(=O)N[C@@H](CNC(=O)OCc2oc(=O)oc2C)C(=O)N[C@@H](CC(C)C)C(=O)N2C[C@H](O)C[C@H]2C(=O)N[C@@H](Cc2c[nH]c3ccccc23)C(=O)N[C@@H](CCN)C(=O)N[C@@H](CC2=CC(CC(=O)O)c3ccccc32)C(=O)N1C (stereo partly shown) [Example 1021]
9.3	CCCC[C@H]1C(=O)N(C)[C@@H](CCCC)C(=O)N[C@@H](CC(C)C)C(=O)N[C@H](C(=O)NCC(=O)N[C@@H](Cc2cn(CCOCCOCCOCCOCCOCCOCCOCCOCCOCCOCCOCCNC(=O)CC[C@H](NC(=O)CCCCCCCCCCCCCCCCC(=O)O)C(=O)OC)nn2)C(=O)O)CSCC(=O)N[C@@H](Cc2ccc(O)cc2)C(=O)N(C)[C@@H](C)C(=O)N[C@@H](CC(N)=O)C(=O)N2CCC[C@H]2C(=O)N[C@@H](CN)C(=O)N[C@@H](CC(C)C)C(=O)N2C[C@H](O)C[C@H]2C(=O)N[C@@H](Cc2c[nH]c3ccccc23)C(=O)N[C@@H](CCN)C(=O)N[C@@H](Cc2cn(CC(=O)OC)c3ccccc23)C(=O)N1C [Example 3003]
10	CCCC[C@H]1C(=O)N(C)[C@@H](CCCC)C(=O)N[C@@H](CC(C)C)C(=O)N[C@H](C(=O)NCC(=O)N[C@@H](Cc2cn(CCOCCOCCOCCOCCOCCOCCOCCOCCOCCOCCOCCNC(=O)CC[C@H](NC(=O)CCCCCCCCCCCCCCCCC(=O)O)C(=O)O)nn2)C(=O)OC)CSCC(=O)N[C@@H](Cc2ccc(O)cc2)C(=O)N(C)[C@@H](C)C(=O)N[C@@H](CC(N)=O)C(=O)N2CCC[C@H]2C(=O)N[C@@H](CN)C(=O)N[C@@H](CC(C)C)C(=O)N2C[C@H](O)C[C@H]2C(=O)N[C@@H](Cc2c[nH]c3ccccc23)C(=O)N[C@@H](CCN)C(=O)N[C@@H](Cc2cn(CC(=O)OC)c3ccccc23)C(=O)N1C [Example 3001]
6.9	CCCC[C@H]1C(=O)N(C)[C@@H](CCCC)C(=O)N[C@@H](CC(C)C)C(=O)N[C@H](C(=O)NCC(=O)N[C@@H](Cc2cn(CCOCCOCCOCCOCCOCCOCCOCCOCCOCCOCCOCCNC(=O)CC[C@H](NC(=O)CCCCCCCCCCCCCCCCC(=O)OC)C(=O)OC)nn2)C(=O)O)CSCC(=O)N[C@@H](Cc2ccc(O)cc2)C(=O)N(C)[C@@H](C)C(=O)N[C@@H](CC(N)=O)C(=O)N2CCC[C@H]2C(=O)N[C@@H](CNC(=O)OCc2oc(=O)oc2C)C(=O)N[C@@H](CC(C)C)C(=O)N2C[C@H](O)C[C@H]2C(=O)N[C@@H](Cc2c[nH]c3ccccc23)C(=O)N[C@@H](CCN)C(=O)N[C@@H](Cc2cn(CC(=O)O)c3ccccc23)C(=O)N1C [Example 7004]
8	CCCC[C@H]1C(=O)N(C)[C@@H](CCCC)C(=O)N[C@@H](CC(C)C)C(=O)N[C@H](C(=O)NCC(=O)N[C@@H](Cc2cn(CCOCCOCCOCCOCCOCCOCCOCCOCCOCCOCCOCCNC(=O)CC[C@H](NC(=O)CCCCCCCCCCCCCCCCC(=O)O)C(=O)O)nn2)C(=O)O)CSCC(=O)N[C@@H](Cc2ccc(O)cc2)C(=O)N(C)[C@@H](C)C(=O)N[C@@H](CC(N)=O)C(=O)N2CCC[C@H]2C(=O)N[C@@H](CNC(=O)OC)C(=O)N[C@@H](CC(C)C)C(=O)N2C[C@H](O)C[C@H]2C(=O)N[C@@H](Cc2c[nH]c3ccccc23)C(=O)N[C@@H](CCNC(=O)OCC)C(=O)N[C@@H](Cc2cn(CC(=O)O)c3ccccc23)C(=O)N1C [Example 7012]
11	CCCC[C@H]1C(=O)N(C)[C@@H](CCCC)C(=O)N[C@@H](CC(C)C)C(=O)N[C@H](C(=O)NCC(=O)N[C@@H](Cc2cn(CCOCCOCCOCCOCCOCCOCCOCCOCCOCCOCCOCCNC(=O)CC[C@H](NC(=O)CCCCCCCCCCCCCCCCC(=O)OC)C(=O)OC)nn2)C(=O)O)CSCC(=O)N[C@@H](Cc2ccc(O)cc2)C(=O)N(C)[C@@H](C)C(=O)N[C@@H](CC(N)=O)C(=O)N2CCC[C@H]2C(=O)N[C@@H](CN)C(=O)N[C@@H](CC(C)C)C(=O)N2C[C@H](O)C[C@H]2C(=O)N[C@@H](Cc2c[nH]c3ccccc23)C(=O)N[C@@H](CCN)C(=O)N[C@@H](CC2=CC(CC(=O)O)c3ccccc32)C(=O)N1C (stereo partly shown) [Example 1011]
5.9	CCCC[C@H]1C(=O)N(C)[C@@H](CCCC)C(=O)N[C@@H](CC(C)C)C(=O)N[C@H](C(=O)NCC(=O)N[C@@H](Cc2cn(CCOCCOCCOCCOCCOCCOCCOCCOCCOCCOCCOCCNC(=O)CC[C@H](NC(=O)CCCCCCCCCCCCCCCCC(=O)O)C(=O)O)nn2)C(=O)O)CSCC(=O)N[C@@H](Cc2ccc(O)cc2)C(=O)N(C)[C@@H](C)C(=O)N[C@@H](CC(N)=O)C(=O)N2CCC[C@H]2C(=O)N[C@@H](CNC(=O)OCC)C(=O)N[C@@H](CC(C)C)C(=O)N2C[C@H](O)C[C@H]2C(=O)N[C@@H](Cc2c[nH]c3ccccc23)C(=O)N[C@@H](CCNC(=O)OCC)C(=O)N[C@@H](CC2=CC(CC(=O)O)c3ccccc32)C(=O)N1C (stereo partly shown) [Example 1008]
46	CCCC[C@H]1C(=O)N(C)[C@@H](CCCC)C(=O)N[C@@H](CC(C)C)C(=O)N[C@H](C(=O)NCC(=O)N[C@@H](Cc2cn(CCOCCOCCOCCOCCOCCOCCOCCOCCOCCOCCOCCNC(=O)CC[C@H](NC(=O)CCCCCCCCCCCCCCCCC(=O)O)C(=O)O)nn2)C(=O)O)CSCC(=O)N[C@@H](Cc2ccc(O)cc2)C(=O)N(C)[C@@H](C)C(=O)N[C@@H](CC(N)=O)C(=O)N2CCC[C@H]2C(=O)N[C@@H](CNC(=O)OCc2oc(=O)oc2C)C(=O)N[C@@H](CC(C)C)C(=O)N2C[C@H](O)C[C@H]2C(=O)N[C@@H](Cc2c[nH]c3ccccc23)C(=O)N[C@@H](CCNC(=O)OCC)C(=O)N[C@@H](Cc2cn(CC(=O)O)c3ccccc23)C(=O)N1C [Example 7010]
8.6	CCCC[C@H]1C(=O)N(C)[C@@H](CCCC)C(=O)N[C@@H](CC(C)C)C(=O)N[C@H](C(=O)NCC(=O)N[C@@H](Cc2cn(CCOCCOCCOCCOCCOCCOCCOCCOCCOCCOCCOCCNC(=O)CC[C@H](NC(=O)CCCCCCCCCCCCCCCCC(=O)O)C(=O)O)nn2)C(=O)O)CSCC(=O)N[C@@H](Cc2ccc(O)cc2)C(=O)N(C)[C@@H](C)C(=O)N[C@@H](CC(N)=O)C(=O)N2CCC[C@H]2C(=O)N[C@@H](CNC(=O)OCC)C(=O)N[C@@H](CC(C)C)C(=O)N2C[C@H](O)C[C@H]2C(=O)N[C@@H](Cc2c[nH]c3ccccc23)C(=O)N[C@@H](CCNC(=O)OCc2oc(=O)oc2C)C(=O)N[C@@H](Cc2cn(CC(=O)O)c3ccccc23)C(=O)N1C [Example 7014]
6.5	CCCC[C@H]1C(=O)N(C)[C@@H](CCCC)C(=O)N[C@@H](CC(C)C)C(=O)N[C@H](C(=O)NCC(=O)N[C@@H](Cc2cn(CCOCCOCCOCCOCCOCCOCCOCCOCCOCCOCCOCCNC(=O)CC[C@H](NC(=O)CCCCCCCCCCCCCCCCC(=O)O)C(=O)O)nn2)C(=O)O)CSCC(=O)N[C@@H](Cc2ccc(O)cc2)C(=O)N(C)[C@@H](C)C(=O)N[C@@H](CC(N)=O)C(=O)N2CCC[C@H]2C(=O)N[C@@H](CNC(=O)OC(C)(C)C)C(=O)N[C@@H](CC(C)C)C(=O)N2C[C@H](O)C[C@H]2C(=O)N[C@@H](Cc2c[nH]c3ccccc23)C(=O)N[C@@H](CCNC(=O)OC(C)(C)C)C(=O)N[C@@H](Cc2cn(CC(=O)O)c3ccccc23)C(=O)N1C [Example 1002]
